What was measured:
log P by HPLC = assay type: physicochemical
Sphaerotheca fuliginea = assay: Spaerotheca test (cucumber)/protective; assay type: in vivo; conditions: protective, application rate 750 g/ha, evaluation 7 days after inoculation
Protocol: Spaerotheca Test (Cucumber)/Protective • Solvent: 49 parts by weight of N,N-dimethylformamide • Emulsifier: 1 part by weight of alkylaryl polyglycol ether To produce a suitable preparation of active compound, 1 part by weight of active compound is mixed with the stated amounts of solvent and emulsifier and the concentrate is diluted with water to the desired concentration. To test for protective activity, the young cucumber plants are sprayed with the active compound preparation at the application rate indicated. 1 day after treatment, the plants are inoculated with a spore suspension of Sphaerotheca fuliginea. The plants are then placed in a greenhouse at a temperature of 23° C. and at a relative humidity of 70%. Evaluation is made 7 days after inoculation. 0% denotes an efficacy corresponding to that of the control, while an efficacy of 100% denotes that no infestation is observed.

Puccinia recondita = assay: Puccinia test (wheat)/protective; assay type: in vivo; conditions: protective, application rate 500 g/ha, evaluation 10 days after inoculation
Protocol: Puccinia Test (Wheat)/Protective • Solvent: 25 parts by weight of N,N-dimethylacetamide • Emulsifier: 0.6 part by weight of alkylaryl polyglycol ether To produce a suitable preparation of active compound, 1 part by weight of active compound is mixed with the stated amounts of solvent and emulsifier and the concentrate is diluted with water to the desired concentration. To test for protective activity, the young plants are sprayed with the active compound preparation at the application rate indicated. After the spray coating has dried on, the plants are sprayed with a conidia suspension of Puccinia recondita. The plants spend 48 hours at 20° C. and 100% relative humidity in an incubation cabin. The plants are then placed in a greenhouse at a temperature of about 20° C. and a relative humidity of 80% in order to promote the development of rust pustules. Evaluation is made 10 days after inoculation. 0% denotes an efficacy corresponding to that of the control, while an efficacy of 100% denotes that no infestation is observed.

Podosphaera leucotricha = assay: Podosphaera test (apple)/protective; assay type: in vivo; conditions: protective, application rate 100 g/ha, evaluation 10 days after inoculation
Protocol: Podosphaera Test (Apple)/Protective • Solvent: 24.5 parts by weight of acetone • 24.5 parts by weight of dimethylacetamide • Emulsifier: 1 part by weight of alkylaryl polyglycol ether
To produce a suitable preparation of active compound, 1 part by weight of active compound is mixed with the stated amounts of solvent and emulsifier and the concentrate is diluted with water to the desired concentration.
To test for protective activity, the young plants are sprayed with the active compound preparation at the application rate indicated. After the spray coating has dried on, the plants are inoculated with an aqueous spore suspension of the apple mildew causative organism Podosphaera leucotricha. The plants are then placed in a greenhouse at about 23° C. and at a relative humidity of about 70%.
Evaluation is made 10 days after inoculation. 0% denotes an efficacy corresponding to that of the control, while an efficacy of 100% denotes that no infestation is observed.

[1] = HPLC, gradient method, acetonitrile/0.1% aqueous phosphoric acid, EEC directive 79/831 Annex V. A8
[2] = EEC directive 79/831 Annex V. A8 by HPLC (gradient method, acetonitrile/0.1% aqueous phosphoric acid)

Compound	logP (log P by HPLC; [1])	logP (log P by HPLC; [2])	also measured
C[C@H](Nc1c(-c2c(F)cc(F)cc2F)c(Cl)nc2nc(C(F)(F)F)nn12)C(F)(F)F [Example 3]	–	–	chromatographic logP (log P by HPLC; [1]): 3.94; Efficacy in % (Sphaerotheca fuliginea): 93%; Efficacy in % (Puccinia recondita): 100%
CCc1nc2nc(Cl)c(-c3c(F)cc(F)cc3F)c(N[C@@H](C)C(F)(F)F)n2n1 [Example 4]	–	–	chromatographic logP (log P by HPLC; [1]): 3.39; Efficacy in % (Sphaerotheca fuliginea): 93%
Fc1cc(F)c(-c2c(Cl)nc3nc(C(F)(F)F)nn3c2NCC(F)(F)F)c(F)c1 [Example 8]	–	–	chromatographic logP (log P by HPLC; [1]): 3.64; Efficacy in % (Sphaerotheca fuliginea): 100%; Efficacy in % (Podosphaera leucotricha): 100%
Fc1cc(F)c(-c2c(Cl)nc3nc(C(F)(F)F)nn3c2NCCC(F)(F)F)c(F)c1 [Example 7]	–	–	chromatographic logP (log P by HPLC; [1]): 3.76; Efficacy in % (Sphaerotheca fuliginea): 100%; Efficacy in % (Podosphaera leucotricha): 100%
Cc1nc2nc(Cl)c(-c3ccccc3Cl)c(NC(C)C)n2n1 [compound 214]	2.75	–	–
Cc1nc2nc(Cl)c(-c3ccccc3F)c(NOCc3cccc(C(F)(F)F)c3)n2n1 [compound 371]	–	3.38	–
Cc1nc2nc(Cl)c(-c3c(F)cccc3F)c(N3CCC(NC(=O)OC(C)(C)C)CC3)n2n1 [compound 321]	–	3.15	–
Cc1nc2nc(Cl)c(-c3c(F)cc(F)cc3F)c(N3CCCC(C)C3)n2n1 (centres unmarked) [compound 165]	3.9	–	–
C=C(C)CNc1c(-c2c(F)cc(F)cc2F)c(Cl)nc2nc(C)nn12 [compound 16]	2.76	–	–
CCN(CC)c1c(-c2c(F)cccc2F)c(Cl)nc2nc(C)nn12 [compound 175]	2.98	–	–
Cc1nc2nc(Cl)c(-c3ccc(F)cc3F)c(N3CCCCC3C)n2n1 (centres unmarked) [compound 285]	–	3.7	–
CC(=O)CC(C)(C)Nc1c(-c2ccc(F)cc2F)c(Cl)nc2nc(C)nn12 [compound 407]	–	2.53	–
Cc1nc2nc(Cl)c(-c3c(F)cccc3F)c(NC(C)C(F)(F)F)n2n1 (centres unmarked) [compound 182]	2.78	–	–
COCCN(C)c1c(-c2c(F)cc(F)cc2F)c(Cl)nc2nc(C3CC3)nn12 [compound 468]	–	3.29	–
Cc1nc2nc(Cl)c(-c3c(F)cc(F)cc3F)c(NC(C)C(F)(F)F)n2n1 (centres unmarked) [compound 69]	3.04	–	–
Cc1nc2nc(Cl)c(-c3ccccc3F)c(NOCc3ccc(F)cc3)n2n1 [compound 369]	–	2.98	–
